Measurements published in the supplement of paper PMC10307832.

What was measured:
Experiment in all cases: relative viability (nuclei count vs DMSO), 5 days (fraction); higher = more cells survive
[1] = compound: CN(NC(=O)CC(=O)NN(C)C(=S)c1ccccc1)C(=S)c1ccccc1 [Elesclomol]
Method in brief: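 Hoechst staining, done together with fixation and permeabilisation, marked nuclei for 4× imaging and MetaXpress counting. This followed 5 days without medium change after lung cancer cell lines, kept overnight at 37 °C in 1536-well plates, were pinned with five library-drug doses (not always all listed) spaced by √10 on vehicle-anchored plates. Viability is the ratio of treated-well to vehicle-well nuclei, expressed as a median across plates. Plates passed only at control CV below 25% with at least one doubling.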

[2] = compound: CN(NC(=O)CC(=O)NN(C)C(=S)c1ccccc1)C(=S)c1ccccc1 [Elesclomol] + N=C(N)NC(=N)NCCc1ccccc1 [Phenformin] (partner 250 µM)
Method in brief: (§1)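 One day after seeding in 1536-well plates, lung cancer cell lines were dosed by pin tool. Dosing was either single-drug or a fixed anchor-drug dose plus five library-drug doses (not always all listed) in √10 steps. After 5 days, nuclei were stained in one fix-and-stain step and counted on 4× images, and relative viability is the nuclei count of treated wells over that of vehicle wells, given as the median of duplicate plates.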

[3] = compound: CN(NC(=O)CC(=O)NN(C)C(=S)c1ccccc1)C(=S)c1ccccc1 [Elesclomol] + COc1cc2c(Oc3ccc(NC(=O)C4(C(=O)Nc5ccc(F)cc5)CC4)cc3F)ccnc2cc1OCCCN1CCOCC1 [Foretinib] (partner 0.25 µM)
Method in brief: as §1

[4] = compound: CN(NC(=O)CC(=O)NN(C)C(=S)c1ccccc1)C(=S)c1ccccc1 [Elesclomol] + Cc1cc(Nc2cc(N3CCN(C)CC3)nc(Sc3ccc(NC(=O)C4CC4)cc3)n2)n[nH]1 [Tozasertib] (partner 0.1 µM)
Method in brief: as §1

[5] = compound: CN(NC(=O)CC(=O)NN(C)C(=S)c1ccccc1)C(=S)c1ccccc1 [Elesclomol] + CCNC(=O)c1noc(-c2cc(C(C)C)c(O)cc2O)c1-c1ccc(CN2CCOCC2)cc1 [Luminespib] (partner 0.01 µM)
Method in brief: as §1

[6] = compound: CN(NC(=O)CC(=O)NN(C)C(=S)c1ccccc1)C(=S)c1ccccc1 [Elesclomol] + COc1cccc2cc(-c3nc([C@H]4CC[C@H](C(=O)O)CC4)n4ncnc(N)c34)[nH]c12 [OSI-027] (partner 0.5 µM)
Method in brief: as §1

[7] = compound: CN(NC(=O)CC(=O)NN(C)C(=S)c1ccccc1)C(=S)c1ccccc1 [Elesclomol] + Cc1nc(Nc2ncc(C(=O)Nc3c(C)cccc3Cl)s2)cc(N2CCN(CCO)CC2)n1 [Dasatinib] (partner 0.075 µM)
Method in brief: as §1

[8] = compound: CN(NC(=O)CC(=O)NN(C)C(=S)c1ccccc1)C(=S)c1ccccc1 [Elesclomol] + O=C(c1cc(Cc2n[nH]c(=O)c3ccccc23)ccc1F)N1CCN(C(=O)C2CC2)CC1 [Olaparib] (partner 8 µM)
Method in brief: as §1

[9] = compound: CN(NC(=O)CC(=O)NN(C)C(=S)c1ccccc1)C(=S)c1ccccc1 [Elesclomol] + Nc1nc2[nH]cc(CCc3ccc(C(=O)N[C@@H](CCC(=O)O)C(=O)O)cc3)c2c(=O)[nH]1 [Pemetrexed] (partner 0.2 µM)
Method in brief: as §1

[10] = compound: CN(NC(=O)CC(=O)NN(C)C(=S)c1ccccc1)C(=S)c1ccccc1 [Elesclomol] + CC(=O)c1c(C)c2cnc(Nc3ccc(N4CCNCC4)cn3)nc2n(C2CCCC2)c1=O [Palbociclib] (partner 0.5 µM)
Method in brief: as §1

[11] = compound: CN(NC(=O)CC(=O)NN(C)C(=S)c1ccccc1)C(=S)c1ccccc1 [Elesclomol] + CC(=O)Nc1cccc(-n2c(=O)n(C3CC3)c(=O)c3c(Nc4ccc(I)cc4F)n(C)c(=O)c(C)c32)c1 [Trametinib] (partner 0.02 µM)
Method in brief: as §1

[12] = compound: CN(NC(=O)CC(=O)NN(C)C(=S)c1ccccc1)C(=S)c1ccccc1 [Elesclomol] + Nc1ncn([C@H]2C[C@H](O)[C@@H](CO)O2)c(=O)n1 [Decitabine] (partner 2 µM)
Method in brief: as §1

[13] = compound: CN(NC(=O)CC(=O)NN(C)C(=S)c1ccccc1)C(=S)c1ccccc1 [Elesclomol] + NC(=O)Nc1cc(-c2cccc(F)c2)sc1C(=O)N[C@H]1CCCNC1 [AZD7762] (partner 0.2 µM)
Method in brief: as §1

[14] = compound: CN(NC(=O)CC(=O)NN(C)C(=S)c1ccccc1)C(=S)c1ccccc1 [Elesclomol] + O=C(CCCCCCC(=O)Nc1ccccc1)NO [Vorinostat] (partner 1 µM)
Method in brief: as §1

NCI-H1623
relative viability ([1]; 0.003162 µM): 0.775
relative viability ([1]; 0.01 µM): 0.462
relative viability ([1]; 0.03162 µM): 0.37
relative viability ([1]; 0.1 µM): 0.339
relative viability ([2]; first compound 0.003162 µM): 0.624
relative viability ([2]; first compound 0.01 µM): 0.552
relative viability ([2]; first compound 0.03162 µM): 0.539
relative viability ([2]; first compound 0.1 µM): 0.443
relative viability ([3]; first compound 0.003162 µM): 0.868
relative viability ([3]; first compound 0.01 µM): 0.526
relative viability ([3]; first compound 0.03162 µM): 0.422
relative viability ([3]; first compound 0.1 µM): 0.422
relative viability ([4]; first compound 0.003162 µM): 0.392
relative viability ([4]; first compound 0.01 µM): 0.417
relative viability ([4]; first compound 0.03162 µM): 0.35
relative viability ([4]; first compound 0.1 µM): 0.303
relative viability ([5]; first compound 0.003162 µM): 0.235
relative viability ([5]; first compound 0.01 µM): 0.216
relative viability ([5]; first compound 0.03162 µM): 0.251
relative viability ([5]; first compound 0.1 µM): 0.217
relative viability ([6]; first compound 0.003162 µM): 0.386
relative viability ([6]; first compound 0.01 µM): 0.353
relative viability ([6]; first compound 0.03162 µM): 0.347
relative viability ([6]; first compound 0.1 µM): 0.296
relative viability ([7]; first compound 0.003162 µM): 0.499
relative viability ([7]; first compound 0.01 µM): 0.464
relative viability ([7]; first compound 0.03162 µM): 0.312
relative viability ([7]; first compound 0.1 µM): 0.254

NCI-H1648
relative viability ([1]; 0.003162 µM): 0.606
relative viability ([1]; 0.01 µM): 0.725
relative viability ([1]; 0.03162 µM): 0.827
relative viability ([1]; 0.1 µM): 0.76
relative viability ([8]; first compound 0.003162 µM): 0.675
relative viability ([8]; first compound 0.01 µM): 0.753
relative viability ([8]; first compound 0.03162 µM): 0.835
relative viability ([8]; first compound 0.1 µM): 0.796
relative viability ([9]; first compound 0.003162 µM): 0.7
relative viability ([9]; first compound 0.01 µM): 0.599
relative viability ([9]; first compound 0.03162 µM): 0.752
relative viability ([9]; first compound 0.1 µM): 0.673
relative viability ([4]; first compound 0.003162 µM): 0.379
relative viability ([4]; first compound 0.01 µM): 0.409
relative viability ([4]; first compound 0.03162 µM): 0.506
relative viability ([4]; first compound 0.1 µM): 0.54
relative viability ([10]; first compound 0.003162 µM): 0.301
relative viability ([10]; first compound 0.01 µM): 0.285
relative viability ([10]; first compound 0.03162 µM): 0.266
relative viability ([10]; first compound 0.1 µM): 0.253
relative viability ([11]; first compound 0.003162 µM): 0.555
relative viability ([11]; first compound 0.01 µM): 0.415
relative viability ([11]; first compound 0.03162 µM): 0.46
relative viability ([11]; first compound 0.1 µM): 0.39
relative viability ([12]; first compound 0.003162 µM): 0.551
relative viability ([12]; first compound 0.01 µM): 0.469
relative viability ([12]; first compound 0.03162 µM): 0.509
relative viability ([12]; first compound 0.1 µM): 0.453
relative viability ([6]; first compound 0.003162 µM): 0.263
relative viability ([6]; first compound 0.01 µM): 0.276
relative viability ([6]; first compound 0.03162 µM): 0.224
relative viability ([6]; first compound 0.1 µM): 0.295
relative viability ([13]; first compound 0.003162 µM): 0.581
relative viability ([13]; first compound 0.01 µM): 0.686
relative viability ([13]; first compound 0.03162 µM): 0.61
relative viability ([13]; first compound 0.1 µM): 0.622
relative viability ([14]; first compound 0.003162 µM): 0.338
relative viability ([14]; first compound 0.01 µM): 0.416
relative viability ([14]; first compound 0.03162 µM): 0.385
relative viability ([14]; first compound 0.1 µM): 0.313
